Measured values reported in ChEMBL document CHEMBL3885881, “DrugMatrix”.

Species on record: Rattus norvegicus
Assay: DrugMatrix - Regimen: Daily Repeat
Type: toxicity, organism-based, Sprague-Dawley
Set-up: regimen Daily Repeat, gender Male, age 6-8 weeks
Settings: in vivo, ip, route intraperitoneal, vehicle 100 % SALINE; for ABSOLUTE BASOPHIL / ABSOLUTE EOSINOPHIL / ABSOLUTE LYMPHOCYTE / ABSOLUTE MONOCYTE / ABSOLUTE SEGMENTED NEUTROPHIL / BASOPHIL / EOSINOPHIL / ERYTHROCYTE COUNT / HEMATOCRIT / HEMOGLOBIN / LEUKOCYTE COUNT / LYMPHOCYTE / MEAN CORPUSCULAR HEMOGLOBIN / MEAN CORPUSCULAR HEMOGLOBIN CONCENTRATION / MEAN CORPUSCULAR VOLUME / MONOCYTE / NEUTROPHIL / PLATELET COUNT: tissue Blood; for ALANINE AMINOTRANSFERASE / ALBUMIN / ALKALINE PHOSPHATASE / ASPARTATE AMINOTRANSFERASE / BLOOD UREA NITROGEN / CHLORIDE / CHOLESTEROL / CREATININE / GLUCOSE / LACTATE DEHYDROGENASE / LIPASE / PHOSPHORUS / POTASSIUM / SODIUM / TOTAL BILIRUBIN / TOTAL PROTEIN / URIC ACID / CREATINE PHOSPHOKINASE: tissue Plasma
[1] = 0 mg/kg, 120 h, dose level Control, time 5 day
[2] = 0 mg/kg, […], dose level Control, time 14 day
[3] = 0 mg/kg, […], dose level Control, time 28 day
[4] = 160 mg/kg, 120 h, dose level High, time 5 day

NCC[C@H](O)C(=O)N[C@@H]1C[C@H](N)[C@@H](O[C@H]2O[C@H](CN)[C@@H](O)[C@H](O)[C@H]2O)[C@H](O)[C@H]1O[C@H]1O[C@H](CO)[C@@H](O)[C@H](N)[C@H]1O [AMIKACIN]
ABSOLUTE BASOPHIL [1]: 32 cells/µL | ABSOLUTE EOSINOPHIL [1]: 110 cells/µL | ABSOLUTE LYMPHOCYTE [1]: 6630 cells/µL | ABSOLUTE MONOCYTE [1]: 140 cells/µL | ABSOLUTE SEGMENTED NEUTROPHIL [1]: 1170 cells/µL | BASOPHIL [1]: 0.38% | EOSINOPHIL [1]: 1.28% | ERYTHROCYTE COUNT [1]: 7.45 x10E6/uL | HEMATOCRIT [1]: 45.74% | HEMOGLOBIN [1]: 14.72 G/DL | LEUKOCYTE COUNT [1]: 8.11 x10E3/uL | LYMPHOCYTE [1]: 81.3% | MEAN CORPUSCULAR HEMOGLOBIN [1]: 19.76 pg | MEAN CORPUSCULAR HEMOGLOBIN CONCENTRATION [1]: 32.16 G/DL | MEAN CORPUSCULAR VOLUME [1]: 61.38 fL | MONOCYTE [1]: 1.76% | NEUTROPHIL [1]: 14.9% | PLATELET COUNT [1]: 1322.4 x10E3/uL | ALANINE AMINOTRANSFERASE [1]: 25.8 u/L | ALBUMIN [1]: 3.64 G/DL | ALKALINE PHOSPHATASE [1]: 233.6 u/L | ASPARTATE AMINOTRANSFERASE [1]: 81.4 u/L | BLOOD UREA NITROGEN [1]: 14.4 mg/dL | CHLORIDE [1]: 105.6 MEQ/L | CHOLESTEROL [1]: 69.2 mg/dL | CREATININE [1]: 0.56 mg/dL | GLUCOSE [1]: 125.4 mg/dL | LACTATE DEHYDROGENASE [1]: 105.4 u/L | LIPASE [1]: 22.4 u/L | PHOSPHORUS [1]: 11.48 mg/dL | POTASSIUM [1]: 5.52 MEQ/L | SODIUM [1]: 147 MEQ/L | TOTAL BILIRUBIN [1]: 0.2 mg/dL | TOTAL PROTEIN [1]: 6.1 G/DL | URIC ACID [1]: 1.06 mg/dL | ABSOLUTE BASOPHIL [2]: 130 cells/µL | ABSOLUTE EOSINOPHIL [2]: 140 cells/µL | ABSOLUTE LYMPHOCYTE [2]: 13500 cells/µL | ABSOLUTE MONOCYTE [2]: 400 cells/µL | ABSOLUTE SEGMENTED NEUTROPHIL [2]: 2330 cells/µL | BASOPHIL [2]: 0.72% | EOSINOPHIL [2]: 0.86% | ERYTHROCYTE COUNT [2]: 7.74 x10E6/uL | HEMATOCRIT [2]: 45.98% | HEMOGLOBIN [2]: 13.86 G/DL | LEUKOCYTE COUNT [2]: 16.61 x10E3/uL | LYMPHOCYTE [2]: 81.34% | MEAN CORPUSCULAR HEMOGLOBIN [2]: 18 pg | MEAN CORPUSCULAR HEMOGLOBIN CONCENTRATION [2]: 30.22 G/DL | MEAN CORPUSCULAR VOLUME [2]: 59.4 fL | MONOCYTE [2]: 2.46% | NEUTROPHIL [2]: 14.14% | PLATELET COUNT [2]: 1445.5 x10E3/uL | ABSOLUTE BASOPHIL [3]: 91 cells/µL | ABSOLUTE EOSINOPHIL [3]: 110 cells/µL | ABSOLUTE LYMPHOCYTE [3]: 9910 cells/µL | ABSOLUTE MONOCYTE [3]: 210 cells/µL | ABSOLUTE SEGMENTED NEUTROPHIL [3]: 1560 cells/µL | BASOPHIL [3]: 0.77% | EOSINOPHIL [3]: 0.92% | ERYTHROCYTE COUNT [3]: 8.21 x10E6/uL | HEMATOCRIT [3]: 47.53% | HEMOGLOBIN [3]: 15.65 G/DL | LEUKOCYTE COUNT [3]: 11.91 x10E3/uL | LYMPHOCYTE [3]: 83.34% | MEAN CORPUSCULAR HEMOGLOBIN [3]: 19.07 pg | MEAN CORPUSCULAR HEMOGLOBIN CONCENTRATION [3]: 32.93 G/DL | MEAN CORPUSCULAR VOLUME [3]: 57.9 fL | MONOCYTE [3]: 1.68% | NEUTROPHIL [3]: 12.97% | PLATELET COUNT [3]: 1323.8 x10E3/uL | ALANINE AMINOTRANSFERASE [2]: 31.6 u/L | ALBUMIN [2]: 3.66 G/DL | ALKALINE PHOSPHATASE [2]: 228.6 u/L | ASPARTATE AMINOTRANSFERASE [2]: 79.6 u/L | BLOOD UREA NITROGEN [2]: 11.2 mg/dL | CHLORIDE [2]: 107 MEQ/L | CHOLESTEROL [2]: 57 mg/dL | CREATINE PHOSPHOKINASE [2]: 233.6 u/L | CREATININE [2]: 0.5 mg/dL | GLUCOSE [2]: 124.4 mg/dL | LACTATE DEHYDROGENASE [2]: 106.4 u/L | LIPASE [2]: 24.4 u/L | PHOSPHORUS [2]: 10.52 mg/dL | POTASSIUM [2]: 6.34 MEQ/L | SODIUM [2]: 149.2 MEQ/L | TOTAL BILIRUBIN [2]: 0.2 mg/dL | TOTAL PROTEIN [2]: 6.48 G/DL | URIC ACID [2]: 0.94 mg/dL | ALANINE AMINOTRANSFERASE [3]: 30 u/L | ALBUMIN [3]: 3.71 G/DL | ALKALINE PHOSPHATASE [3]: 186.8 u/L | ASPARTATE AMINOTRANSFERASE [3]: 78.2 u/L | BLOOD UREA NITROGEN [3]: 14.2 mg/dL | CHLORIDE [3]: 105.4 MEQ/L | CHOLESTEROL [3]: 44.9 mg/dL | CREATINE PHOSPHOKINASE [3]: 334.3 u/L | CREATININE [3]: 0.6 mg/dL | GLUCOSE [3]: 147.2 mg/dL | LACTATE DEHYDROGENASE [3]: 123.1 u/L | LIPASE [3]: 9.6 u/L | PHOSPHORUS [3]: 10.01 mg/dL | POTASSIUM [3]: 6.57 MEQ/L | SODIUM [3]: 149.5 MEQ/L | TOTAL BILIRUBIN [3]: 0.21 mg/dL | TOTAL PROTEIN [3]: 6.66 G/DL | URIC ACID [3]: 1.26 mg/dL | ABSOLUTE BASOPHIL [4]: 42 cells/µL | ABSOLUTE EOSINOPHIL [4]: 76 cells/µL | ABSOLUTE LYMPHOCYTE [4]: 7260 cells/µL
